Our source for the TGI values is PubChem BioAssay (NCI).

Test systems include CCRF-CEM leukemia; EKVX NSCLC; HOP-62 NSCLC; MDA-N; NCI-H226 lung; NCI-H522 lung; OVCAR-3 ovarian; RPMI-8226 leukemia; SNB-75 CNS; SR leukemia; TK-10 renal; UO-31 renal.
What all share (experiment): NCI-60 cell line screen, 48 h

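Each compound was tested at five concentrations against cells in 96-well plates for 48 hours. TGI denotes the concentration required for complete inhibition of growth.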 Where a SMILES comes first, the peptide text is derived from it. The star is where a group is joined. Cbz = O=C(OCc1ccccc1)*

Turning to `CCOP(=O)(OCC)/C(C#N)=C/c1ccc(-c2cc(C(F)(F)F)cc(C(F)(F)F)c2)o1`, the TGI with CCRF-CEM leukemia came out at 34.3 µM; in the test on EKVX NSCLC, 35 µM; in the test on HOP-62 NSCLC, 29.1 µM; in the test with MDA-N, 27.2 µM; in the test on NCI-H226 lung, 32.6 µM; in the test on NCI-H522 lung, 24.6 µM. Besides, the TGI with OVCAR-3 ovarian worked out at 21.6 µM; in the test with RPMI-8226 leukemia it was 23.5 µM; with SNB-75 CNS, 27.9 µM; in the test on SR leukemia it was 26.8 µM; in the test with TK-10 renal, 35.5 µM; in the test with UO-31 renal, 34.9 µM.

With `COc1ccc(N2C(=O)C(=O)N(c3ccc(N=Nc4ccccc4)cc3)C2=S)cc1`, the TGI in the test with CCRF-CEM leukemia was > 100 µM; in the test on EKVX NSCLC, 37 µM; with HOP-62 NSCLC it was 34.6 µM; in the test with MDA-N it was 40.3 µM; in the test on NCI-H226 lung it was 48.4 µM; in the test on NCI-H522 lung, 20.2 µM. For the same molecule, the TGI in the test with RPMI-8226 leukemia is > 100 µM; with SNB-75 CNS it was 55.5 µM; with SR leukemia, > 100 µM; in the test on TK-10 renal, 50.4 µM; in the test with UO-31 renal, 30.3 µM.

Turning to `NC1(CCNC(=O)c2ccccc2)CCN(C(=O)c2ccccc2)CC1`, the TGI with CCRF-CEM leukemia, in the test on EKVX NSCLC, in the test with MDA-N, in the test with NCI-H226 lung, with NCI-H522 lung and in the test on RPMI-8226 leukemia was > 100 µM each time. Further, the TGI in the test on SNB-75 CNS, with SR leukemia, in the test with TK-10 renal and in the test on UO-31 renal was > 100 µM in each case.

Regarding `CCOC(=O)CCC(NC(=O)C(Cc1ccccc1)NC(=O)OCc1ccccc1)C(=O)OCC` (stereo not drawn) (Cbz-Phe-Glu(OEt)-OEt; configuration not given here), the TGI in the test on CCRF-CEM leukemia is > 64.7 µM; in the test with EKVX NSCLC, 39.1 µM; in the test on HOP-62 NSCLC, 32.5 µM; in the test with MDA-N, 32.6 µM; in the test with NCI-H226 lung it was 32.6 µM; in the test on NCI-H522 lung, 29.6 µM. For the same molecule, the TGI with OVCAR-3 ovarian was 28.6 µM; with RPMI-8226 leukemia, > 76 µM; in the test on SNB-75 CNS, 35.1 µM; in the test on SR leukemia, > 68.8 µM; in the test on TK-10 renal, 34.6 µM; in the test with UO-31 renal it was 31.2 µM.

In the case of `OC(C/C=N/N=C/CC(O)(C(F)(F)Cl)C(F)(F)Cl)(C(F)(F)Cl)C(F)(F)Cl`, the TGI in the test on CCRF-CEM leukemia, in the test with EKVX NSCLC, in the test on HOP-62 NSCLC, in the test with MDA-N, in the test with NCI-H226 lung and in the test with NCI-H522 lung was > 10 µM in each case. Further, the TGI with OVCAR-3 ovarian, in the test on RPMI-8226 leukemia, with SNB-75 CNS, in the test with SR leukemia, in the test with TK-10 renal and in the test with UO-31 renal was > 10 µM throughout.

On to `O=c1[nH]c2nc3ccccc3c(=O)n2/c1=C/c1cccs1`, for which the TGI with CCRF-CEM leukemia, in the test with EKVX NSCLC, with HOP-62 NSCLC, in the test on MDA-N, in the test on NCI-H226 lung and in the test on NCI-H522 lung was > 100 µM each time. In addition, the TGI in the test on OVCAR-3 ovarian, in the test on RPMI-8226 leukemia, with SNB-75 CNS, with SR leukemia, in the test with TK-10 renal and in the test with UO-31 renal was > 100 µM each time.

With `Cc1[nH]n(-c2nc(O)c(-c3ccccc3)c(=O)[nH]2)c(=O)c1CCO`, the TGI with CCRF-CEM leukemia, with EKVX NSCLC, with MDA-N, in the test on NCI-H226 lung, with NCI-H522 lung and in the test with RPMI-8226 leukemia was > 100 µM each time. Besides, the TGI in the test with SNB-75 CNS, with SR leukemia, in the test with TK-10 renal and with UO-31 renal was > 100 µM each time.

`COc1cc2c(cc1O)NC(=O)[C@@H]1CCCN1C2=O`: the TGI in the test with CCRF-CEM leukemia, with EKVX NSCLC, with HOP-62 NSCLC, in the test with MDA-N, in the test with NCI-H226 lung and in the test with NCI-H522 lung was > 100 µM in each case. For the same molecule, the TGI with OVCAR-3 ovarian, in the test on RPMI-8226 leukemia, with SNB-75 CNS, in the test on SR leukemia, with TK-10 renal and with UO-31 renal was > 100 µM throughout.

Consider `COc1ccc2nc(-c3ccccc3)c(=O)[nH]c2c1`, for which the TGI in the test on CCRF-CEM leukemia, with EKVX NSCLC, in the test with HOP-62 NSCLC, with MDA-N, in the test with NCI-H226 lung and in the test on NCI-H522 lung was > 100 µM throughout. The TGI in the test with OVCAR-3 ovarian, in the test with RPMI-8226 leukemia, with SNB-75 CNS, in the test on SR leukemia and with TK-10 renal was > 100 µM each time.

As for `CS(=O)(=O)N1CC(CCl)c2ccc(O)cc21` (stereo not drawn), the TGI with CCRF-CEM leukemia was determined as 23.8 µM; in the test on EKVX NSCLC, 16.3 µM; with HOP-62 NSCLC, 13 µM; in the test with MDA-N it was 3.54 µM; in the test on NCI-H226 lung, 6.83 µM; in the test with NCI-H522 lung it was 5.8 µM. The TGI is 9.3 µM in the test on OVCAR-3 ovarian; 6.91 µM in the test on RPMI-8226 leukemia; 8.4 µM in the test with SNB-75 CNS; 77.4 µM with SR leukemia; 6.98 µM in the test with TK-10 renal; 5.79 µM with UO-31 renal.

In the case of `CC(=O)SC(C[N+](=O)[O-])c1ccc2c(c1)OCO2` (stereo not drawn), the TGI with CCRF-CEM leukemia is > 46.4 µM; in the test on EKVX NSCLC, 52.5 µM; in the test on HOP-62 NSCLC it was 36.5 µM; in the test on MDA-N, 4.64 µM; with NCI-H226 lung it was 46 µM; in the test with NCI-H522 lung, 10.4 µM. Besides, the TGI in the test with OVCAR-3 ovarian is 16.6 µM; in the test with RPMI-8226 leukemia, > 22.7 µM; in the test with SNB-75 CNS, 41.1 µM; with SR leukemia, 7.27 µM; in the test on TK-10 renal, 28.2 µM; in the test on UO-31 renal, 11.9 µM.

Turning to `O=C1C(Br)=CC2(C=C1Br)CCNC1=C2C(=O)c2ncccc2C1=O`, the TGI came to 6.82 µM in the test with CCRF-CEM leukemia; 3.3 µM with EKVX NSCLC; 1.73 µM in the test with HOP-62 NSCLC; 0.353 µM with MDA-N; 3.54 µM in the test with NCI-H226 lung; 1.06 µM in the test with NCI-H522 lung. Besides, the TGI in the test on OVCAR-3 ovarian stood at 4.56 µM; with RPMI-8226 leukemia it was 2.46 µM; in the test with SNB-75 CNS, 2.9 µM; in the test with SR leukemia, 2.07 µM; with TK-10 renal, 4.73 µM; with UO-31 renal, 2.35 µM.
